For this assay, the system named is TPA-induced edema of mouse ears. Nature of the assay: TPA-induced mouse ear edema assay of quercetin-3-O-(6″-benzoyl)-β-galactoside (Example 3). It counts as in vivo, mouse (CD-1 female). The conditions noted are these: topical, purified compound. Here is the method:
The anti-inflammatory activity of quercetin-3-O-(6″-benzoyl)-β-galactoside (Peak 19) was tested in vivo with the 12-O-tetradecanoylphorbol-13-acetate (TPA)-induced mouse ear edema assay. Each of the treatments was topically applied to both ears of at least five CD-1 female mice. Treatments included application of either acetone or curcumin controls or the test extract in 20 μl of acetone twenty minutes prior to application of 1.5 nmol of TPA in acetone. After 7 hours post-treatment, mice were sacrificed and 6 mm diameter ear punch biopsies were taken and weighed. The ratio of the difference in the weight of ear punches between TPA treated groups receiving pretreatments of acetone and the test extract, respectively, to the difference in the weight of ear punches between acetone pretreated groups subsequently treated with TPA and acetone, respectively, indicates the degree of anti-inflammatory activity of the test extract.

Entries after “also recorded” stand apart in the source; their conditions may differ.

For the compound `O=C(OC[C@H]1O[C@@H](Oc2c(-c3ccc(O)c(O)c3)oc3cc(O)cc(O)c3c2=O)[C@H](O)[C@@H](O)[C@H]1O)c1ccccc1` [quercetin-3-O-(6″-benzoyl)-β-galactoside], the “anti-inflammatory activity in the TPA-induced mouse ear edema assay (in words)” value is reported as “potent anti-inflammatory agent; also recorded: highly effective inhibitor of inflammation”.

Source of the values: patent publication US7270837B2, “Anti-inflammatory cranberry flavonol extract preparations” (Rutgers, The State University of New Jersey, priority 2003, dated 2007).
